{"source": "patent US10005767B2", "about": "“Compositions and methods for inhibition of the JAK pathway” (Rigel Pharmaceuticals, Inc., priority 2009, dated 2018)", "note": "Where a name gives a salt, the structure may show the parent alone.", "data": [{"test_system": "human primary T-cells, IL-2 stimulated proliferation (JAK-1 and JAK-3 dependent; reported as JAK3 activity)", "assay": "Human primary T-cell proliferation stimulated by IL-2 (Example 3)", "type": "cell-based", "details": "Homo sapiens, T-cell, tested under conditions described in Example 3 (IL-2 stimulated human primary T-cell proliferation); read-out: ability to inhibit JAK3 activity, IC50 range (Table V)", "description": "(§1) The activity of the compounds described herein can further be characterized by assaying the effect of the 2,4-pyrimidinediamine compounds described herein on the proliferative response of primary human T-cells. In this assay, primary human T-cells derived from peripheral blood and pre-activated through stimulation of the T-cell receptor and CD28, proliferate in culture in response to the cytokine Interleukin-2 (IL-2). This proliferative response is dependent on the activation of JAK1 and JAK3 tyrosine kinases, which phosphorylate and activate the transcription factor Stat-5. The primary human T-cells are incubated with the 2,4-pyrimidinediamine compounds in the presence of IL-2 for 72 hours, and at the assay endpoint intracellular ATP concentrations are measured to assess cell viability. A reduction in cell proliferation compared to control conditions is indicative of inhibition of the JAK kinase pathway.\n(§2) Primary human T-cells derived from peripheral blood and pre-activated through stimulation of the T-cell receptor and CD28, proliferate in vitro in response to the cytokine Interleukin-2 (IL-2). This proliferative response is dependent on the activation of JAK-1 and JAK-3 tyrosine kinases, which phosphorylate and activate the transcription factor Stat-5.\n(§3) Human primary T cells were prepared as follows. […] The lymphocytes at the serum: ficoll interface were recovered and washed twice with 5 volumes of PBS. […] The primary T-cells were stimulated for 3-4 days, then transferred to a fresh flask and maintained in RPMI with 10% FBS and 40 U/mL IL-2.\n(§4) The day prior to the assay set up, primary T-cells were centrifuged and resuspended in fresh RPMI with 10% FBS but without IL-2 and starved overnight. For the assay, the primary T-cells were centrifuged and resuspended Yssel's medium at 2×10^6 cells/mL. 50 μL of cell suspension containing 80 U/mL IL-2 was added to each well of a flat bottom 96 well black plate. For the unstimulated control, IL-2 was omitted from the last column on the plate. […] 50 μL of 2× compound was added per well in duplicate and the cells were allowed to proliferate for 72 hours at 37° C.\n(§5) Proliferation was measured using CellTiter-Glo® Luminescent Cell Viability Assay (Promega), which determines the number of viable cells in culture based on quantitation of the ATP present, as an indicator of metabolically active cells. The substrate was thawed and allowed to come to ambient temperature. After mixing the Cell Titer-Glo reagent and diluent together, 100 μL was added to each well. The plates were mixed on an orbital shaker for two minutes to induce lysis and incubated at ambient temperature for an additional ten minutes to allow the signal to equilibrate.\n(§6) The compound designations in Table V are consistent with those of Tables I-IV above.", "units": {"IC50": "nM"}, "values": [{"compound": "Cc1cnc(Nc2ccc(N3CCN(C)CC3)nc2)nc1Nc1ccc2oc(=O)[nH]c2c1", "note": "[II-13, N4-(benzoxazolin-2-on-5-yl)-N2-[2-(4-methylpiperazin-1-yl)pyridin-5-yl]-5-methylpyrimidine-2,4-diamine]", "IC50": "< 500"}, {"compound": "COc1cc(Nc2ncc(C)c(Nc3cc(F)c4oc(=O)[nH]c4c3)n2)cc(C(F)(F)F)c1", "note": "[Compound I-251, 7-fluoro-5-(2-(3-methoxy-5-(trifluoromethyl)phenylamino)-5-methylpyrimidin-4-ylamino)benzo[d]oxazol-2(3H)-one]", "IC50": "< 500"}, {"compound": "Cc1cnc(Nc2ccc(OCCN(C)C)cc2)nc1Nc1ccc2oc(=O)[nH]c2c1", "note": "[Compound I-426, 5-{2-[4-(2-Dimethylamino-ethoxy)-phenylamino]-5-methyl-pyrimidin-4-ylamino}-3H-benzooxazol-2-one]", "IC50": "< 500"}, {"compound": "Cc1cnc(Nc2ccc(C(=O)Nc3ccccc3)cc2)nc1Nc1ccc2oc(=O)[nH]c2c1", "note": "[Compound I-135, 4-[5-Methyl-4-(2-oxo-2,3-dihydro-benzooxazol-5-ylamino)-pyrimidin-2-ylamino]-N-phenyl-benzamide]", "IC50": "< 500"}, {"compound": "Cc1cnc(Nc2cc(F)cc(N3CCN(C)CC3)c2)nc1Nc1ccc2oc(=O)[nH]c2c1", "note": "[Compound I-241, 5-(2-(3-fluoro-5-(4-methylpiperazin-1-yl)phenylamino)-5-methylpyrimidin-4-ylamino)benzo[d]oxazol-2(3H)-one]", "IC50": "< 500"}, {"compound": "Cc1cnc(Nc2ccc(C(=O)N3CCCC3)cc2)nc1Nc1ccc2oc(=O)[nH]c2c1", "note": "[Compound I-247, 5-(5-methyl-2-(4-(pyrrolidine-1-carbonyl)phenylamino)pyrimidin-4-ylamino)benzo[d]oxazol-2(3H)-one]", "IC50": "< 500"}, {"compound": "Cc1cnc(Nc2cnc(N3CCN(C)CC3)c(Cl)c2)nc1Nc1ccc2oc(=O)[nH]c2c1", "note": "[II-116, N2-[3-chloro-2-(4-methylpiperazino)pyridin-5-yl]-5-methyl-N4-(2-oxo-2,3-dihydro-1,3-benzoxazol-5-yl)-2,4-pyrimidinediamine]", "IC50": "< 500"}, {"compound": "Cc1ccc(Nc2ncc(C)c(Nc3ccc4oc(=O)[nH]c4c3)n2)cc1CF", "note": "[Compound I-439, 5-(2-(3-(fluoromethyl)-4-methylphenylamino)-5-methylpyrimidin-4-ylamino)benzo[d]oxazol-2(3H)-one]", "IC50": "< 500"}, {"compound": "COc1ccc(Nc2ncc(C)c(Nc3ccc4oc(=O)[nH]c4c3)n2)cc1C(=O)N1CCOCC1", "note": "[Compound I-262, 5-(2-(4-methoxy-3-(morpholine-4-carbonyl)phenylamino)-5-methylpyrimidin-4-ylamino)benzo[d]oxazol-2(3H)-one]", "IC50": "< 500"}, {"compound": "Cc1cnc(Nc2cc(C(C)N3CCCC3)cc(C(F)(F)F)c2)nc1Nc1ccc2oc(=O)[nH]c2c1", "note": "(stereo not shown) [Compound I-463, 5-(5-methyl-2-(3-(1-(pyrrolidin-1-yl)ethyl)-5-(trifluoromethyl)phenylamino)pyrimidin-4-ylamino)benzo[d]oxazol-2(3H)-one]", "IC50": "< 500"}, {"compound": "Cc1cnc(Nc2ccc3c(c2)CN(S(C)(=O)=O)C3)nc1Nc1ccc2oc(=O)[nH]c2c1", "note": "[III-14, 5-[2-(2-Methanesulfonyl-2,3-dihydro-1H-isoindol-5-ylamino)-5-methyl-pyrimidin-4-ylamino]-3H-benzooxazol-2-one]", "IC50": "< 500"}, {"compound": "COc1ccc(Nc2ncc(C)c(Nc3ccc4oc(=O)[nH]c4c3)n2)cc1C(=O)N1CCCC1", "note": "[Compound I-261, 5-(2-(4-methoxy-3-(pyrrolidine-1-carbonyl)phenylamino)-5-methylpyrimidin-4-ylamino)benzo[d]oxazol-2(3H)-one]", "IC50": "< 500"}, {"compound": "Cc1cnc(Nc2ccc3c(c2)OCC(=O)N3)nc1Nc1ccc2oc(=O)[nH]c2c1", "note": "[IV-32, 7-(5-methyl-4-(2-oxo-2,3-dihydrobenzo[d]oxazol-5-ylamino)pyrimidin-2-ylamino)-2H-benzo[b][1,4]oxazin-3 (4H)-one]", "IC50": "< 500"}, {"compound": "Cc1cc(Nc2ncc(C)c(Nc3ccc4oc(=O)[nH]c4c3)n2)ccc1-c1ccncc1", "note": "[Compound I-482, 5-(5-methyl-2-(3-methyl-4-(pyridin-4-yl)phenylamino)pyrimidin-4-ylamino)benzo[d]oxazol-2(3H)-one formate salt]", "IC50": "< 500"}, {"compound": "Cc1cnc(Nc2cccc(S(C)(=O)=O)c2)nc1Nc1cc(F)c2oc(=O)[nH]c2c1", "note": "[Compound I-249, 7-fluoro-5-(5-methyl-2-(3-(methylsulfonyl)phenylamino)pyrimidin-4-ylamino)benzo[d]oxazol-2(3H)-one]", "IC50": "< 500"}, {"compound": "Cc1cnc(Nc2cccc(C(C)N3CCOCC3)c2)nc1Nc1ccc2oc(=O)[nH]c2c1", "note": "(stereo not shown) [Compound I-217, 5-(5-methyl-2-(3-(1-morpholinoethyl)phenylamino)pyrimidin-4-ylamino)benzo[d]oxazol-2(3H)-one]", "IC50": "< 500"}, {"compound": "Cc1cnc(Nc2cccc(S(=O)(=O)C3CCCC3)c2)nc1Nc1ccc2oc(=O)[nH]c2c1", "note": "[Compound I-157, 5-[2-(3-Cyclopentanesulfonyl-phenylamino)-5-methyl-pyrimidin-4-ylamino]-3H-benzooxazol-2-one]", "IC50": "< 500"}, {"compound": "Cc1cnc(Nc2ccc(C)c(C(F)(F)F)c2F)nc1Nc1ccc2oc(=O)[nH]c2c1", "note": "[Compound I-532, 5-(2-(2-fluoro-4-methyl-3-(trifluoromethyl)phenylamino)-5-methylpyrimidin-4-ylamino)benzo[d]oxazol-2(3H)-one]", "IC50": "< 500"}, {"compound": "Cc1cnc(Nc2ccc(N3CCC(C)CC3)nc2)nc1Nc1ccc2oc(=O)[nH]c2c1", "note": "[II-6, N4-(benzo[d]oxazol-2(3H)-on-5-yl)-N2-(6-(4-methylpiperidin-1-yl)pyridin-3-yl)-5-methylpyrimidine-2,4-diamine]", "IC50": "> 10000"}]}, {"test_system": "human primary T-cells, IL-2 stimulated proliferation (JAK-1 and JAK-3 dependent; reported as JAK3 activity)", "assay": "Human primary T-cell proliferation stimulated by IL-2 (Example 3)", "type": "cell-based", "details": "tested under conditions described in Example 3 (IL-2 stimulated human primary T-cell proliferation); read-out: ability to inhibit JAK3 activity, IC50 range (Table V)", "description": "as §1, §2, §3, §4, §5, §6", "units": {"IC50": "nM"}, "values": [{"compound": "Cc1cnc(Nc2cc(C)c(C)c(F)c2)nc1Nc1ccc2oc(=O)[nH]c2c1", "note": "[Compound I-537, N2-(3,4-dimethyl-5-fluoro)phenyl-5-methyl-N4-(2-oxo-2,3-dihydro-1,3-benzoxazol-5-yl)-2,4-pyrimidinediamine]", "IC50": "< 500"}, {"compound": "Cc1cnc(Nc2ccc(NS(C)(=O)=O)cc2)nc1Nc1ccc2oc(=O)n(C)c2c1", "note": "[Compound I-72, N2-((4-methylsulfonylamino)phenyl)-N4-(3-methyl-2-oxo-2,3-dihydrobenzo[d]oxazol-5-yl)-5-methylpyrimidine-2,4-diamine]", "IC50": "< 500"}, {"compound": "Cc1cnc(Nc2ccc(N3CCN(C)CC3)c(CO)c2)nc1Nc1ccc2oc(=O)[nH]c2c1", "note": "[Compound I-331, N2-[3-hydroxymethyl-4-(4-methylpiperazino)]phenyl-5-methyl-N4-(2-oxo-2,3-dihydro-1,3-benzoxazol-5-yl)-2,4-pyrimidinediamine]", "IC50": "< 500"}, {"compound": "Cc1ccc(Nc2ncc(C)c(Nc3ccc4oc(=O)[nH]c4c3)n2)cc1S(=O)(=O)NC(C)(C)C", "note": "[Compound I-113, N4-(benzoxazolin-2-on-5-yl)-N2-[4-methyl-3-N-(t-butyl)aminosulfonylphenyl]-5-methylpyrimidine-2,4-diamine]", "IC50": "< 500"}, {"compound": "Cc1ccc(Nc2ncc(C)c(Nc3ccc4[nH]c(=O)oc4c3)n2)cc1NS(C)(=O)=O", "note": "[Compound I-104, N2-((3-methylsulfonylamino-4-methyl)phenyl)-N4-(2-oxo-2,3-dihydrobenzo[d]oxazol-6-yl)-5-methylpyrimidine-2,4-diamine]", "IC50": "< 500"}, {"compound": "Cc1ccc(Nc2ncc(C)c(Nc3ccc4oc(=O)[nH]c4c3)n2)cc1S(N)(=O)=O", "note": "[Compound I-24, N4-(benzo[d]oxazol-2(3H)-on-5-yl)-N2-((3-aminosulfonyl-4-methyl)phenyl)-5-methylpyrimidine-2,4-diamine]", "IC50": "< 500"}, {"compound": "Cc1cnc(Nc2ccc(N(C)[C@H]3CCCN(Cc4ccccc4)C3)nc2)nc1Nc1ccc2oc(=O)[nH]c2c1", "note": "[II-100, (S)-5-(2-(6-((1-benzylpiperidin-3-yl)(methyl)amino)pyridin-3-ylamino)-5-methylpyrimidin-4-ylamino)benzo[d]oxazol-2(3H)-one]", "IC50": "< 500"}, {"compound": "Cc1cnc(Nc2cccc(C(O)C(F)(F)F)c2)nc1Nc1ccc2oc(=O)[nH]c2c1", "note": "(stereo not shown) [Compound I-304, N2-[3-(1-hydroxy-2,2,2-trifluoroethyl)]phenyl-5-methyl-N4-(2-oxo-2,3-dihydro-1,3-benzoxazol-5-yl)-2,4-pyrimidinediamine]", "IC50": "< 500"}, {"compound": "Cc1cnc(Nc2cc(F)cc(F)c2)nc1Nc1ccc2oc(=O)[nH]c2c1", "note": "[Compound I-359, N2-(3,5-difluoro)phenyl-5-methyl-N4-(2-oxo-2,3-dihydro-1,3-benzoxazol-5-yl)-2,4-pyrimidinediamine]", "IC50": "< 500"}]}]}
